{"source": "patent US10874684B2", "about": "“Liponucleotide-based therapy for ARDS” (Ohio State Innovation Foundation, priority 2016, dated 2020)", "key": {"[1]": {"tested_on": "influenza A/WSN/33 (H1N1)-infected mice", "assay": "Effect of influenza infection and i.p. liponucleotide treatment on lung function", "assay_type": "in vivo, mouse", "conditions": "for HR (bpm) / WET:DRY / SaO2 (%) / CST / RBASAL: day 6", "text": "CDP-choline improved oxygenation. SaO2 increased from approximately 85% to approximately 96%. This is equivalent to an increase in PaO2 from approximately 65 mmHg to approximately 85 mmHg. It is also equivalent to an increase in O2 carrying capacity of blood (CaO2) from approximately 88% to approximately 97% of normal. Patients with an SaO2 of 96% or a […] would not require additional treatment"}, "[2]": {"tested_on": "ATII cells from influenza A/WSN/33 (H1N1)-infected mice", "assay": "Effect of influenza infection and CDP-choline treatment on ATII cell ultrastructure (transmission electron micrographs)", "assay_type": "in vivo, mouse", "text": "FIG. 14 is a group of three transmission electron micrographs showing effects of CDP-choline treatment on ultrastructure of ATII cell lamellar bodies (composed of surfactant lipids and proteins). Relative to mock-infected controls, lamellar bodies in ATII cells from influenza A/WSN/33 (H1N1)-infected mice are smaller and have disordered lamellae.\nFIG. 15 is a group of 3 transmission electron micrographs showing effects of influenza infection on ultrastructure of ATII cell mitochondria (Mi). Relative to mock-infected controls (left), Mi in ATII cells from A/WSN/33 (H1N1)-infected mice (center) are fewer in number, less electron dense, and have disordered membranes and cristae."}, "[3]": {"tested_on": "mice with ARDS induced by intranasal bleomycin", "assay": "Bleomycin-induced ARDS in mice, i.p. liponucleotide treatment", "assay_type": "in vivo", "conditions": "day 7 after intranasal bleomycin 0.1 mg/mouse; daily i.p. from days 1-6"}, "influenza-infected mice [4]": {"tested_on": "influenza-infected mice", "assay": "Effect of influenza infection and CDP-choline treatment on lung inflammation", "assay_type": "in vivo", "conditions": "day 6 flu; 100 μg/mouse i.p. daily from 1-5 days post-infection"}, "[5]": {"tested_on": "alveolar type II (ATII) epithelial cells isolated 6 days post-influenza infection", "assay": "Effect of influenza infection and CDP-choline treatment on mitochondrial function (Seahorse MitoStress test on isolated ATII cells)", "assay_type": "in vivo, mouse", "method": "FIG. 17 is a plot showing effect of daily i.p. treatment with CDP-choline (CDP-CHO, 100 μg/mouse) from 1-5 days post-influenza infection on basal O2 consumption rate (OCR) of alveolar type II (ATII) epithelial cells isolated at 6 days post-mock infection or 6 days post-influenza infection and OCR after subsequent treatment of the same ATII cells with oligomycin (1 μM). **=P<0.005, #=P<0.001.\nFIG. 18 is a plot showing effect of daily i.p. treatment with CDP-choline (CDP-CHO, 100 μg/mouse) from 1-5 days post-influenza infection on ATP production, non-mitochondrial (non-mt) respiration, and proton (H^+) leak of alveolar type II (ATII) epithelial cells isolated at 6 days post-mock infection or 6 days post-influenza infection. *=P<0.05, #=P<0.001."}, "influenza-infected mice [6]": {"tested_on": "influenza-infected mice", "assay": "Treatment with CDP-choline precursors (choline, CTP) in influenza-infected mice, arterial oxygenation", "assay_type": "in vivo", "conditions": "day 6 post-influenza infection; daily i.p. 100 μg/mouse from 1-5 days post-infection; compared with CDP-choline", "method": "FIG. 16 is a plot showing effect of daily i.p. treatment with choline (100 μg/mouse), cytidine triphosphate (CTP, 100 μg/mouse), and choline+CTP from 1-5 days post-influenza infection on mouse O2 sats (SaO2) at day 6 post-influenza infection."}, "[7]": {"conditions": "influenza-infected mice, i.p. daily from 1-5 days post-infection"}, "[8]": {"conditions": "influenza-infected mice, i.p. daily from 1-5 days post-infection, CDP-CHO/CDP-ETH 100 μg/mouse, CDP-DAG 10 μg/mouse"}, "[9]": {"conditions": "day 6 flu, 100 μg/mouse i.p. daily from 1-5 days post-infection"}, "[10]": {"conditions": "ATII cells isolated 6 days post-influenza infection, Seahorse MitoStress, effect on influenza-induced impairment"}, "[11]": {"conditions": "influenza-infected mice, 100 μg/mouse i.p. on day 5 only"}}, "note": "“Also recorded” adds a separate entry of the source. Marks after values point to notes of the source that are not given here.", "data": [{"compound": "NCCOP(=O)(O)OP(=O)(O)OC[C@H]1O[C@@H](n2ccc(N)nc2=O)[C@H](O)[C@@H]1O", "note": "[CDP-ETH, CDP-ethanolamine]", "values": [{"measurement": "HR (bpm)", "setting": "[1]; [7]", "result": "540 ± 20", "unit": "bpm"}, {"measurement": "WET:DRY", "setting": "[1]; [7]", "result": "6.5 ± 0.4"}, {"measurement": "SaO2 (%)", "setting": "[1]; [8]", "result": "91.1 ± 1.5", "unit": "%"}]}, {"compound": "C[N+](C)(C)CCOP(=O)(O)OP(=O)(O)OC[C@H]1O[C@@H](n2ccc(N)nc2=O)C(O)C1O", "note": "(some centres unmarked) [CDP-CHO, Cytidine diphosphate-choline]", "values": [{"measurement": "ATII CELL AREA (μm^2)", "setting": "[2]; [9]", "result": "53.64 ± 5.63* μm^2"}, {"measurement": "LAMELLAR BODIES/CELL", "setting": "[2]; [9]", "result": "8.1 ± 1.16"}, {"measurement": "LAMELLAR BODY AREA (μm^2)", "setting": "[2]; [9]", "result": "0.41 ± 0.04* μm^2"}, {"measurement": "MITOCHONDRIAL/CELL", "setting": "[2]; [9]", "result": "14.5 ± 1.78"}, {"measurement": "MIT[…] (μm^2)", "setting": "[2]; [9]", "result": "0.34 ± 0.01* μm^2"}, {"measurement": "ATII cell lamellar body morphology", "setting": "[2]; transmission electron micrographs, A/WSN/33 (H1N1)-infected mice", "result": "improves lamellar body morphology"}, {"measurement": "ATII cell mitochondria (Mi) morphology", "setting": "[2]; transmission electron micrographs, A/WSN/33 (H1N1)-infected mice, listed as CDP-choline", "result": "more electron-dense and have more normal cristae; also recorded: display normal morphology"}, {"measurement": "mouse O2 sats (SaO2), hypoxemia", "setting": "[3]", "result": "can attenuate hypoxemia"}, {"measurement": "mouse weight loss (% of starting body weight), cachexia", "setting": "[3]", "result": "no such beneficial effect"}, {"measurement": "BALF ALVEOLAR MACS (×10^6/ml)", "setting": "influenza-infected mice [4]", "result": "1.08 ± 0.21 ×10^6/ml"}, {"measurement": "BALF NEUTROPHILS (×10^6/ml)", "setting": "influenza-infected mice [4]", "result": "0.45 ± 0.07 ×10^6/ml"}, {"measurement": "BALF PC", "setting": "influenza-infected mice [4]", "result": "1.61 ± 0.45"}, {"measurement": "VIRAL TITER (log PFU/g)", "setting": "influenza-infected mice [4]", "result": "5.32 ± 0.07", "unit": "log PFU/g"}, {"measurement": "basal O2 consumption rate (OCR), mitochondrial oxidative phosphorylation", "setting": "[5]; ATII cells isolated 6 days post-influenza infection, 100 μg/mouse i.p. daily days 1-5, effect on influenza-induced impairment", "result": "reversed"}, {"measurement": "ATP production", "setting": "[5]; [10]", "result": "reversed"}, {"measurement": "non-mitochondrial (non-mt) respiration", "setting": "[5]; [10]", "result": "reversed"}, {"measurement": "proton (H+) leak (coupling efficiency)", "setting": "[5]; [10]", "result": "reversed"}, {"measurement": "OCR after oligomycin (ATP synthase activity)", "setting": "[5]; ATII cells isolated 6 days post-influenza infection, oligomycin 1 μM, effect on influenza-induced impairment", "result": "reversed"}, {"measurement": "MITOCHONDRIAL MEMBRANE POTENTIAL (ψm; DilC1(5) MCF)", "setting": "[5]; [9]", "result": "10.14 ± 2.3*"}, {"measurement": "MIT[…] PRODUCTION", "setting": "[5]; [9]", "result": "36.91 ± 6.82#"}, {"measurement": "PaO2 equivalent after treatment", "setting": "[1]; equivalent of SaO2 increase, from approximately 65 mmHg", "result": "approximately 85 mmHg"}, {"measurement": "O2 carrying capacity of blood (CaO2) after treatment", "setting": "[1]; equivalent of SaO2 increase, from approximately 88%", "result": "approximately 97 % of normal"}, {"measurement": "cardiac function", "setting": "[1]; influenza-infected mice", "result": "improved cardiac function"}, {"measurement": "effects of single dose treatment late in infection versus daily treatment", "setting": "[1]; influenza-infected mice", "result": "as good as those of daily treatment"}, {"measurement": "lung function", "setting": "[1]; influenza-infected mice", "result": "better lung function"}, {"measurement": "pulmonary edema", "setting": "[1]; influenza-infected mice", "result": "reduced pulmonary edema"}, {"measurement": "CST", "setting": "[1]; [11]", "result": "0.05 ± 0.006"}, {"measurement": "HR (bpm)", "setting": "[1]; [11]", "result": "550 ± 10", "unit": "bpm"}, {"measurement": "RBASAL", "setting": "[1]; [11]", "result": "1.63 ± 0.22"}, {"measurement": "SaO2 (%)", "setting": "[1]; [11]", "result": "92.9 ± 1.5", "unit": "%"}, {"measurement": "WET:DRY", "setting": "[1]; [11]", "result": "6.2 ± 0.2"}, {"measurement": "CST", "setting": "[1]; [7]", "result": "0.05 ± 0.002"}, {"measurement": "HR (bpm)", "setting": "[1]; [7]", "result": "570 ± 10", "unit": "bpm"}, {"measurement": "RBASAL", "setting": "[1]; [7]", "result": "1.96 ± 0.12"}, {"measurement": "WET:DRY", "setting": "[1]; [7]", "result": "6.2 ± 0.4"}, {"measurement": "SaO2 (%)", "setting": "[1]; [8]", "result": "93.5 ± 1.0", "unit": "%"}, {"measurement": "SaO2 after treatment", "setting": "[1]; influenza-infected mice, increased from approximately 85%", "result": "approximately 96%"}]}, {"compound": "Nc1ccn([C@@H]2O[C@H](COP(=O)(O)OP(=O)(O)OP(=O)(O)O)[C@@H](O)[C@H]2O)c(=O)n1", "note": "[CTP, cytidine triphosphate]", "values": [{"measurement": "beneficial effect on arterial oxygenation, mouse O2 sats (SaO2)", "setting": "influenza-infected mice [6]", "result": "cannot be reproduced"}]}, {"compound": "CCCCCCCCCCCCCCCC(=O)OC[C@H](COP(=O)(O)OP(=O)(O)OC[C@H]1O[C@@H](n2ccc(N)nc2=O)[C@H](O)[C@@H]1O)OC(=O)CCCCCCCCCCCCCCC", "note": "[CDP-DAG, CDP-diacylglycerol]", "values": [{"measurement": "HR (bpm)", "setting": "[1]; [7]", "result": "600 ± 10", "unit": "bpm"}, {"measurement": "WET:DRY", "setting": "[1]; [7]", "result": "5.8 ± 0.1"}, {"measurement": "SaO2 (%)", "setting": "[1]; [8]", "result": "95.2 ± 1.6", "unit": "%"}]}]}
